Measurements from article PMC4731787, “Structural basis for the recognition of two consecutive mutually interacting DPF motifs by the SGIP1 μ homology domain” (Scientific Reports, 2016).
Read-outs that look alike come from different tables or passages of the source. GST = glutathione S-transferase fusion tag

B1: GST-Eps15-595–660: GST-tagged Eps15 fragment, residues 595–660, 7 DPF motifs (protein, UniProt P42566 595-660, looked up, fragment)
chain: {GST}-SKEEDPFNVDSSSLTGPVADTNLDFFQSDPFVGSDPFKDDPFGKIDPFGGDPFKGSDPFASDCFFR
B2: Eps15-618–648 (domain or fragment, human)
chain: GPLGSYDFFQSDPFVGSDPFKDDPFGKIDPFGGDPFK
notes: source: E. coli, expressed and purified in the same manner as the SGIP1 µHD
B3: Eps15-628–644 (peptide)
peptide: Ac-YSDPFKDDPFGKIDPFGG-NH2
notes: artificial N-terminal Tyr; source: synthetic peptide (Eurofins Genomics)
B4: Eps15-628–639 (peptide)
peptide: Ac-YSDPFKDDPFGKI-NH2
notes: as for B3
B5: Eps15-632–644 (peptide)
peptide: Ac-YKDDPFGKIDPFGG-NH2
notes: artificial N-terminal Tyr; human Eps15 residues 632-644; source: synthetic peptide (Eurofins Genomics)
B6: Eps15-632–654 (peptide)
peptide: Ac-YKDDPFGKIDPFGGDPFKGSDPFA-NH2
notes: as for B3
B7: GST-Eps15-530–594: GST-tagged Eps15 fragment, residues 530–594, 0 DPF motifs (protein)
chain: {GST}-STSSSETANLNEHVEGQSNLESEPIHQESPARSSPELLPSGVTDENEVTTAVTEKVCSELDNNRH

Assays:
[1] = target: T1, SGIP1 μHD (residues 552 to 828) (Homo sapiens, UniProt Q9BQI5); experiment: ITC of Eps15 fragments with the SGIP1 μHD; format: binding; conditions: for Kd: 50 mM Tris-HCl pH 8.0, 50 mM NaCl, global fit of two runs
T1 construct: the SGIP1 μHD (residues 552 to 828); GST (N, cleaved yes); made in house; host or cells: Escherichia coli BL21-Gold (DE3) or Rosetta2
T1 sequence (Q9BQI5 552-828): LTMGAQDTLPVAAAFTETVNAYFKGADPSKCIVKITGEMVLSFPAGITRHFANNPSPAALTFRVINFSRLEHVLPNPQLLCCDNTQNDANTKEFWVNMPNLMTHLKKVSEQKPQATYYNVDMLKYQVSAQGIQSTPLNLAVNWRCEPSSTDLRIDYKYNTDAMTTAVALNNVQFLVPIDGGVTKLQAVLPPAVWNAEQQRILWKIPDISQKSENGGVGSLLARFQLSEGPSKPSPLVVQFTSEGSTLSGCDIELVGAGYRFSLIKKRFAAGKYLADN
Experimental: For the majority of the ITC experiments, the SGIP1 μHD, its mutants, or the FCHo1 μHD, in 50 mM Tris-HCl buffer (pH 8.0) containing 50 mM NaCl, was loaded in the sample cell, in a volume of 1.42 ml, and titrated with various Eps15-derived fragments or peptides in the same buffer, with an initial 5 μl injection and subsequent 10 μl injections, for a total of 25 injections. The titrations were performed while the samples were stirred at 310 r.p.m. at 25 °C. Each injection was followed by an interval of 4 min, to allow baseline stabilization. For the other ITC experiments indicated in Supplementary Table 2, the Eps15-derived fragments or peptides in the sample cell were titrated with the SGIP1 or FCHo1 μHD. All ITC experiments were performed on a VP-ITC microcalorimeter (MicroCal, LLC) and repeated twice, and the data were processed with the program NITPIC[42]. The two data sets from each ITC experiment were analyzed by global weighted least-squares fitting with the program SEDPHAT[43]. Figures for the ITC data were created with the program GUSSI (http://biophysics.swmed.edu/MBR/software.html). To obtain the values of the traditional stoichiometric parameter N in our ITC data analyses (Supplementary Table 2), we used the values of the parameters of the incompetent fractions of proteins and ligands. […] The values of the incompetent fractions are between 0 and 1, whereas the other parameter affecting the traditional parameter N, the number of sites, was fixed as 1 and 2, for the single- and two-site models, respectively. Thus, in the two-site model, the values of N for the first and second sites are identical in our ITC data analyses (Supplementary Table 2).

[2] = target: T2, SGIP1 µ homology domain (µHD), residues 552 to 828 (human, UniProt Q9BQI5-1 552-828); experiment: ITC; µHD, µHD mutant or α-adaptin appendage domain in the sample cell, titrated with the Eps15 fragment or peptide; 50 mM Tris-HCl (pH 8.0), 50 mM NaCl, 25 °C; VP-ITC; two data sets fitted globally (NITPIC, SEDPHAT); single-site model; conditions: both partners purified
T2 construct: pGEX-6P-1 construct cut with 3C protease; also called SGIP1 µHD; human SGIP1 µHD (aa552–828); source: E. coli BL21-Gold (DE3) or Rosetta2, purified (Glutathione Sepharose 4B, 3C protease cleavage, Superdex 200)
T2 sequence (looked up): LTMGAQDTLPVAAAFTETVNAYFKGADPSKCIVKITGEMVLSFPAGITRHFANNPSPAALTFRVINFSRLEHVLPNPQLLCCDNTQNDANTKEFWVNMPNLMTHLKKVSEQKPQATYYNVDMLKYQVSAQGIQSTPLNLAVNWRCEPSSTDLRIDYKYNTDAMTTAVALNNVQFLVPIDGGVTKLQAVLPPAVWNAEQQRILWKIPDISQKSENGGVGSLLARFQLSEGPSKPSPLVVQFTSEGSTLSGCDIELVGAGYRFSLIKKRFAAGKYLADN

[3] = 25 °C, μHD in cell titrated with fragment, single-site model
[4] = 25 °C, μHD in cell titrated with fragment, single-site model, ± 68.3% confidence interval
[5] = μHD in cell titrated with fragment, single-site model, ± 68.3% confidence interval
[6] = 25 °C, μHD in sample cell titrated with Eps15 fragment, single-site model, ± 68.3% confidence interval
[7] = 25 °C, fragment in cell titrated with μHD, two-site model, first site
[8] = 25 °C, fragment in cell titrated with μHD, two-site model, second site

Molecule | -TΔS [1, 3] | ΔG [1, 3] | ΔH [1, 4] | other results
Ac-YDPFGGNPFKG-NH2 [Eps15-640–649D645N] | -1.138 kcal/mol | -5.642 kcal/mol | -4.504 ± 0.155 kcal/mol | –
Ac-YDPFKGSDPFA-NH2 [Eps15-645–654] | 3.566 kcal/mol | -6.344 kcal/mol | -9.91 ± 0.683 kcal/mol | N (binding ratio of Eps15 fragment to μHD) [1, 5]: 0.75 ± 0.02
Ac-YDPWGGDPFKG-NH2 [Eps15-640–649F642W] | 2.227 kcal/mol | -4.965 kcal/mol | -7.192 ± 0.527 kcal/mol | –
Ac-YEPFGGDPFKG-NH2 [Eps15-640–649D640E] | -0.851 kcal/mol | -4.759 kcal/mol | -3.908 ± 0.595 kcal/mol | –
Ac-YKDDPFGKIDPFGG-NH2 [Eps15-632–644] | -0.071 kcal/mol | -5.584 kcal/mol | -5.513 ± 0.12 kcal/mol | –
Ac-YKDDPFGKIDPFGGDPFKGSDPFA-NH2 [Eps15-632–654] | 1.453 kcal/mol | -7.491 kcal/mol | -8.944 ± 0.142 kcal/mol | N (binding ratio of Eps15 fragment to μHD) [1, 5]: 0.70 ± 0.01
Ac-YNPFGGDPFKG-NH2 [Eps15-640–649D640N] | -0.585 kcal/mol | -5.441 kcal/mol | -4.856 ± 0.193 kcal/mol | –
Ac-YSDPFKDDPFGKI-NH2 [Eps15-628–639] | 1.528 kcal/mol | -4.882 kcal/mol | -6.41 ± 0.646 kcal/mol | –
Ac-YSDPFKDDPFGKIDPFGG-NH2 [Eps15-628–644] | 1.615 kcal/mol | -6.404 kcal/mol | -8.019 ± 0.169 kcal/mol | binding to the SGIP1 μHD (in words) [1]: significantly weaker affinity than Eps15-622–637 and Eps15-640–654; N (binding ratio of Eps15 fragment to μHD) [1, 5]: 0.76 ± 0.01
Ac-YSDPFKDDPFGKIDPFGGDPFKGSDPFA-NH2 [Eps15-628–654] | 1.711 kcal/mol | -8.135 kcal/mol | -9.846 ± 0.223 kcal/mol | Kd ([1]; 25 °C, μHD in sample cell titrated with Eps15 fragment, single-site model, ± 68.3% confidence interval, read-out: Kd): 1.1 ± 0.1 µM; N (binding ratio of Eps15 fragment to μHD) [1, 5]: 0.67 ± 0.01
Ac-YSDPFVGSDPFKDDPFG-NH2 [Eps15-622–637] | 1.967 kcal/mol | -7.247 kcal/mol | -9.214 ± 0.138 kcal/mol | binding to the SGIP1 μHD (in words) [1]: significantly reduced affinity as compared with that of Eps15-530–896; N (binding ratio of Eps15 fragment to μHD) [1, 5]: 0.85 ± 0.01
Ac-YSTDPFATSSTDPFSA-NH2 [Eps15-662–676] | 1.395 kcal/mol | -5.327 kcal/mol | -6.722 ± 1.053 kcal/mol | binding to the SGIP1 μHD (in words) [1]: weakly bound to the μHD; Strength of affinity ([1]; human SGIP1 µHD (aa552–828), Supplementary Table 3, This study): low
Eps15-618–648: Eps15 fragment containing the first five DPF motifs of Eps15-618–654 (DFFQSDPFVGSDPFKDDPFGKIDPFGGDPFK; UniProt P42566 618-648, looked up, fragment) | 0.581 kcal/mol | -8.722 kcal/mol | -9.303 ± 0.257 kcal/mol | N (binding ratio of Eps15 fragment to μHD) [1, 5]: 0.71± 0.02
Eps15-640–649D645E: D645E mutant of Eps15-640–649 (Ac-YDPFGGEPFKG-NH2) | – | – | – | Kd [1, 6]: below detection limit
Eps15-640–649F647W: F647W mutant of Eps15-640–649 (Ac-YDPFGGDPWKG-NH2) | – | – | – | Kd [1, 6]: below detection limit
Eps15-640–649P641L: P641L mutant of Eps15-640–649 (Ac-YDLFGGDPFKG-NH2) | – | – | – | Kd [1, 6]: below detection limit
Eps15-640–649P646L: P646L mutant of Eps15-640–649 (Ac-YDPFGGDLFKG-NH2) | – | – | – | Kd [1, 6]: below detection limit
Eps15-643–650: Eps15 fragment, residues 643–650, 1 DPF motif (Ac-YGGDPFKGS-NH2) | – | – | – | Kd [1, 6]: below detection limit
Eps15-650–659: Eps15 fragment, residues 650–659, 1 DPF motif (Ac-YSDPFASDCFF-NH2) | – | – | – | Kd [1, 6]: below detection limit
Eps15-797–807: Eps15 fragment spanning residues 797 to 807, 2 DPF motifs (Ac-YPDPFKLNDPFQ-NH2) | – | – | – | binding to the SGIP1 μHD (in words) [1]: did not; Kd [1, 6]: below detection limit
B1 | – | – | – | Kd ([1]; 25 °C, Eps15 fragment in cell titrated with SGIP1 μHD, two-site model, first (higher-affinity) site, ± 68.3% confidence interval, read-out: Kd): 0.046 ± 0.015 µM; Kd ([1]; 25 °C, Eps15 fragment in cell titrated with SGIP1 μHD, two-site model, second site, 68.3% confidence interval, read-out: Kd, second site): 16.6 ± 4.1 µM; -TΔS [1, 7]: -2.45 kcal/mol; ΔG [1, 7]: -10.012 kcal/mol; ΔH ([1]; 25 °C, fragment in cell titrated with μHD, two-site model, first site, ± 68.3% confidence interval): -7.562 ± 0.103 kcal/mol; -TΔS, second site [1, 8]: 0.328 kcal/mol; ΔG, second site [1, 8]: -6.52 kcal/mol; ΔH, second site ([1]; 25 °C, fragment in cell titrated with μHD, two-site model, second site, 68.3% confidence interval): -6.848 ± 0.772 kcal/mol; N (binding ratio of Eps15 fragment to μHD) ([1]; fragment in cell titrated with μHD, two-site model, first site (N identical for both sites), ± 68.3% confidence interval): 1.17 ± 0.02; N, second site ([1]; fragment in cell titrated with μHD, two-site model, second site (N identical for both sites), ± 68.3% confidence interval): 1.17 ± 0.02
B2 | – | – | – | stoichiometry N [2]: 0.71
B3 | – | – | – | Kd [2]: 20.2 µM; stoichiometry N [2]: 0.76
B4 | – | – | – | Kd [2]: 264 µM
B5 | – | – | – | Kd [2]: 80.8 µM
B6 | – | – | – | Kd [2]: 3.2 µM; stoichiometry N [2]: 0.7
B7 | – | – | – | Kd [1, 6]: below detection limit
